Several values for one entry are separate records, joined by “and”; a condition that tells them apart may be missing. Equal entries are not always repeated. Entries after “also recorded” stand apart in the source; their conditions may differ.
Legend:
[1] = test system: TNFα-induced NFκB activity; experiment: NFκB luciferase assay (inhibition of TNFα-induced NFκB activity) in HEK293 reporter cells; assay type: cell-based, Human; settings: HEK293 reporter cells challenged with TNFα for three hours
Experimental: The smokeless tobacco used in these experiments was plain long-leaf Copenhagen tobacco purchased from a local vendor. Crude extract was extracted with methanol and water and clarified by centrifugation and filtration. The alkaloid extract was prepared from sodium hydroxide and methanol extraction, organic phase separation and purification. All treatment samples were prepared as a function of weight (μg/ml), and all samples were diluted in DMSO.
Human […] kidney cells (HEK293) transfected with an NFκB luciferase reporter were challenged with TNFα for three hours, then samples were applied to the challenged cells.

nAChR α3/β4 [2] = molecular target: T1, nAChR α3/β4 (Homo sapiens, UniProt P30926+P32297); settings: in presence of 10 μM Ach
Experimental: (§1) HEK293 or CHO cells were transiently or stably transfected with the appropriate human ion channel cDNAs. Stable transfectants were selected by coexpression with the antibiotic-resistance gene(s) incorporated into the expression plasmid(s). Selection pressure was maintained by including selection antibiotics in the culture medium. HEK293 cells were cultured in Dulbecco's Modified Eagle Medium/Nutrient Mixture F-12 (D-MEM/F-12) supplemented with 10% fetal bovine serum, 100 U/mL penicillin G sodium, 100 g/mL streptomycin sulfate and appropriate selection antibiotics. CHO cells were cultured in Ham's F-12 supplemented with 10% fetal bovine serum, 100 U/mL penicillin G sodium, 100 g/mL streptomycin sulfate and appropriate selection antibiotics.
(§2) For FLIPR TETRA™ assay, cells were plated in 384-well black wall, flat clear bottom microtiter plates (Type: BD Biocoat Poly-D-Lysine Multiwell Cell Culture Plate) at 20,000 to 30,000 cells per well (384-well plate). Cells were incubated at 37° C. overnight or until the cells reached a sufficient density in the wells (near confluent monolayer) to use in fluorescence assays. For α4β2 assay, cells were incubated at 27° C. for at least 7 hours before use.
(§3) Experiments were performed with either the FLIPR calcium sensitive dye kit (Fluo-8, ABDbioquest, for nAChR α3/β4 and nAChR α7) or FLIPR membrane potential kit (Molecular Devices, for nAChR α4/β2) according to the manufacturer's instructions. Briefly, cells were incubated with 201 dye for 30 min at 37° C. After dye loading period, for the agonist assay, 5 μl of the test, vehicle, or control articles at concentration of 5 times of final concentration were applied to the cells without stimulation. For the positive allosteric modulation (PAM) and antagonist assay, after test article application, the cells were stimulated with either low dose (for PAM) or high dose (for antagonist) of Ach.
The signal elicited in the presence of the positive control agonist and allosteric modulator (10 μM Ach+1 μM epibatidine) was set to 100% and the signal from the agonist control (10 μM Ach) was set to 0%.

nAChR α7 = molecular target: T2, nAChR α7 (Homo sapiens, UniProt P36544); experiment: nAChR α7 channel agonist assay (FLIPR, with PNU-120596); assay type: cell-based; settings: with 10 μM PNU-120596; maximal stimulation not achieved
T2 construct: host or cells: CHO cells
Experimental: Therefore, the assay of agonist activity for either Ach or for the test articles was conducted in the presence of the positive allosteric modulator.

[3] = Physical signs after single i.v. dose (Example 3); assay type: in vivo, Sprague-Dawley rats; settings: anatabine 0.1, 0.75, 1.0 mg/kg single i.v., rats
Experimental: Four aliquots of each dose level formulation were collected and stored at −80° C. The test compound, corresponding dose level, number of animals, and sample collection times for Phase I of the study are shown in Table 3. The test compound, corresponding dose level, number of animals, and sample collection times for Phase II of the study are shown in Table 4. The physical signs of each animal were monitored following administration of the test compound.

Urinalysis, day 15 = assay type: in vivo, Sprague-Dawley rats
Description: On day 15, urine was collected on all surviving animals for urinalysis. The animals were euthanized and bled via cardiac puncture. Blood was collected for hematology, clinical chemistry, and coagulation analysis. Tissues were collected, weighed, and stored in 10% neutral-buffered formalin for possible future analysis.
There were no notable differences between the active treatment groups and controls and the observations are all consistent with those expected for this species.

nAChR α4/β2 = molecular target: T3, nAChR α4/β2 (Homo sapiens, UniProt P17787+P43681); assay type: cell-based; settings: 100 μM Ach + 0.3 μM epibatidine; not concentration-dependent, IC50 not determinable
T3 construct: host or cells: HEK293 cells, transient transfection
Experimental: (§4) The following three (3) channels were evaluated: • 1. nAChR α3/β4 (encoded by the human CHRNA3 and CHRNB4 gene and stably expressed in CHO cells); • 2. nAChR α4/β2 (CHRNA4 and CHRNB2 gene and transiently expressed in HEK293 cells); and • 3. nAChR α7 (encoded by the human nicotinic α7 gene coexpressed in CHO cells with the chaperone RIC-3 encoded by the human RIC3 gene).
(§5) The ability of each test article to act as an agonist, a positive allosteric modulator or antagonist of three nAChR receptor channels was evaluated in the presence of 0.1 atropine. Both test articles were evaluated for responses on each nAChR channel at eight (8) concentrations: 0.3, 1, 3, 10, 30, 100, 300, and 1000 μM (n=4 for each concentration).
HEK293 or CHO cells were transiently or stably transfected with the appropriate human ion channel cDNAs. Stable transfectants were selected by coexpression with the antibiotic-resistance gene(s) incorporated into the expression plasmid(s). […]
For FLIPR TETRA™ assay, cells were plated in 384-well black wall, flat clear bottom microtiter plates (Type: BD Biocoat Poly-D-Lysine Multiwell Cell Culture Plate) at 20,000 to 30,000 cells per well (384-well plate). Cells were incubated at 37° C. overnight or until the cells reached a sufficient density in the wells (near confluent monolayer) to use in fluorescence assays. […]

[4] = Body weights, weight gain and food consumption over 14 days after single i.v. dose; assay type: in vivo, Sprague-Dawley rats; settings: for day 1 B.W. / day 2 B.W. / day 3 B.W. / day 4 B.W. / day 5 B.W. / day 6 B.W. / day 7 B.W. / day 8 B.W. / day 9 B.W. / day 11 B.W. / day 12 B.W. / day 13 B.W. / day 14 B.W. / day 10 B.W.: individual rats
Experimental: Body weight and food consumption was measured daily for 14 days. On day 15, urine was collected on all surviving animals. The animals were euthanized and bled via cardiac puncture, and blood was collected for analysis. Tissues were collected, weighed, evaluated for gross abnormalities, and stored in 10% neutral-buffered formalin.
All animals were observed daily.

nAChR α3/β4 [5] = molecular target: T1, nAChR α3/β4; experiment: nAChR α3/β4 channel agonist assay (FLIPR, Fluo-8 calcium); settings: 0.3-1000 μM; maximal stimulation not achieved
Experimental: as §4, §5, §1, §2, §3
Concentration-response data was fitted to a Hill equation of the following form:
where Base is the response at low concentrations of test article, Max is the maximum response at high concentrations, xhalf is the EC50 or IC50, the concentration of test article producing either half-maximal activation or inhibition, and rate is the Hill coefficient. Nonlinear least squares fits were made assuming a simple one-to-one binding model.
The ability of both test articles to act as an agonist of nAChR carried out in the absence of the positive control agonist. The signal elicited in the presence of the positive control agonist, 30 μM acetylcholine (Ach) was set to 100% and the signal from the vehicle control, HEPES-buffered physiological saline (HBPS) solution was set to 0%.

[6] = Anatabine dose 0.1 mg/kg, individual animals B1-B10 (M and F)
[7] = Anatabine dose 0.1 mg/kg, individual animals B1-B10 (M and F), 0.1 mg/kg
[8] = Anatabine dose 0.75 mg/kg, individual animals C1-C10 (M and F)
[9] = Anatabine dose 0.75 mg/kg, individual animals C1-C10 (M and F), 0.75 mg/kg
[10] = anatabine 0.1 mg/kg single i.v., Male
[11] = anatabine 0.75 mg/kg single i.v., Female
[12] = anatabine 0.75 mg/kg single i.v., Male

T1 sequence (P32297 32-505): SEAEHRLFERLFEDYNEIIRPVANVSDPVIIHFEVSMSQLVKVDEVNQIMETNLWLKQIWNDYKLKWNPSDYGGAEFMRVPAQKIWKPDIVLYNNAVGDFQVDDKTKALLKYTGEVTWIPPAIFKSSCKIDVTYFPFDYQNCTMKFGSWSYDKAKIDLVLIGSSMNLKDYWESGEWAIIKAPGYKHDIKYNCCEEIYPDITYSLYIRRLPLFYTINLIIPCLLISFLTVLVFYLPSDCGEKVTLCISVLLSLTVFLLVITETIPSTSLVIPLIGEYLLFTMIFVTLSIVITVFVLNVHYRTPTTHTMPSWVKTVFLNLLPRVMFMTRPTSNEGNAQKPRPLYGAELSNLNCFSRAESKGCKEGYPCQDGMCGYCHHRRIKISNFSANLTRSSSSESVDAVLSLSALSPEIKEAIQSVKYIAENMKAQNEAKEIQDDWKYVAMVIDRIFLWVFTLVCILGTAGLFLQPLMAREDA
T1 sequence (P30926 22-498): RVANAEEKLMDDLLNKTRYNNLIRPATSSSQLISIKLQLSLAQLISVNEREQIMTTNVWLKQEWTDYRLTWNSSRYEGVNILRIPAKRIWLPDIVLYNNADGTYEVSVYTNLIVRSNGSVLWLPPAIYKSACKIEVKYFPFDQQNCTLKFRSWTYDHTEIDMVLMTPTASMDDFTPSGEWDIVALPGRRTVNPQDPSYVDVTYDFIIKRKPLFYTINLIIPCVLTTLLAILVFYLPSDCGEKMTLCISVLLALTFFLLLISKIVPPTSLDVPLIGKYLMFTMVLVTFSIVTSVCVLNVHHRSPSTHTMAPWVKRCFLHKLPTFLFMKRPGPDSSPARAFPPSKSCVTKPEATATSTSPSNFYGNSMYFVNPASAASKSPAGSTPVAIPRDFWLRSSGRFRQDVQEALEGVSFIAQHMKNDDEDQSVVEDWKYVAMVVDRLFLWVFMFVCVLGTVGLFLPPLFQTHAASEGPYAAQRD
T3 sequence (P17787 26-502): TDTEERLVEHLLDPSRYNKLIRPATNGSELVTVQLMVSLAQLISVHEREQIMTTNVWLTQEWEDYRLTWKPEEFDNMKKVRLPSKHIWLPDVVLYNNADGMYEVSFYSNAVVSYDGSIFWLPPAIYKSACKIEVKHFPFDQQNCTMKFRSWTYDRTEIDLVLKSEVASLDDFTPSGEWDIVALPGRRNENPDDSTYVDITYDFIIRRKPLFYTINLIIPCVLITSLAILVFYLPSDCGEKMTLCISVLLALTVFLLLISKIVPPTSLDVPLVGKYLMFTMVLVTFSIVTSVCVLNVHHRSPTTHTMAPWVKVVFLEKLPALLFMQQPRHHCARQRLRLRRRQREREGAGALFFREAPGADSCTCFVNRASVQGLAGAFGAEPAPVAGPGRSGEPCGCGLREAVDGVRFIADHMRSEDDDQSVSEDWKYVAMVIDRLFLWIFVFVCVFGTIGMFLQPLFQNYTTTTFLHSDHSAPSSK
T3 sequence (P43681 29-627): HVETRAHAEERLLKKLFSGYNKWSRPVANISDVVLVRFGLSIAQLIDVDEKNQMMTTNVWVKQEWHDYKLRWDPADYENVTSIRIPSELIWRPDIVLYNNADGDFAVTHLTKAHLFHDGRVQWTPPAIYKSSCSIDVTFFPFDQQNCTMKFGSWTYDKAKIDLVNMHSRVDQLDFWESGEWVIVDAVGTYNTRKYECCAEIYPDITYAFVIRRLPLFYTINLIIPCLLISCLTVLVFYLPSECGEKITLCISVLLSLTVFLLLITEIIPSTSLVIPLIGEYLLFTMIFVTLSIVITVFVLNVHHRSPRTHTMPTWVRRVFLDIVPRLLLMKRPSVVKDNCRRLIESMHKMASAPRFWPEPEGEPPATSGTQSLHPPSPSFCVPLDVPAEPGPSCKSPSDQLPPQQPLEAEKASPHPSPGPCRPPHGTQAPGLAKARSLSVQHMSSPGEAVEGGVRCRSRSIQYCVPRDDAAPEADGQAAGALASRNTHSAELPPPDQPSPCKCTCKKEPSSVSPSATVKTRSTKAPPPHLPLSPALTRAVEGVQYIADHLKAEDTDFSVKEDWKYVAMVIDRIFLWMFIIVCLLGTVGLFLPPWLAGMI
T2 sequence (P36544 23-502): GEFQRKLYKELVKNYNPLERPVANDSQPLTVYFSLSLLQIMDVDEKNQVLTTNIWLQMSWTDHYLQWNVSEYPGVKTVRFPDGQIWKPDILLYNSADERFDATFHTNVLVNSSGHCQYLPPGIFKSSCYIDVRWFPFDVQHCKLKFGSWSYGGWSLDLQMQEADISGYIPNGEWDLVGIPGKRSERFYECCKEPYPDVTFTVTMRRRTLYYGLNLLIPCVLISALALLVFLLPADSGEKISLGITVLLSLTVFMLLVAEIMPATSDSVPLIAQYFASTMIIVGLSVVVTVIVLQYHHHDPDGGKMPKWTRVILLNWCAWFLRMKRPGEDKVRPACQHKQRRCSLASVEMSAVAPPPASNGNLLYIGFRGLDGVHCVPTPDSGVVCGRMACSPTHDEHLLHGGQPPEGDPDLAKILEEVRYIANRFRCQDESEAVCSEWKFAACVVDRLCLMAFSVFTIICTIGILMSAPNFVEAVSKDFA

## C1=CCC(c2cccnc2)NC1 (racemic) [Anatabine, 1,2,3,6-tetrahydro-[2,3′]bipyridinyl]
[1]
  TNFα-induced NFκB-mediated transcription of luciferase: can reduce this transcription to control levels
nAChR α3/β4 [2]
  potentiation: Neither nicotine nor anatabine potentiated the activity
nAChR α7
  agonist activity: showed agonist activity
[3]
  physical signs: no obvious adverse signs were observed
Urinalysis, day 15; Anatabine dose 0.1 mg/kg, animal B9 (F), unit not given
  Urinalysis VOLUME: 0.5
Urinalysis, day 15; [6]
  Urinalysis CLARITY: HAZY
  Urinalysis COLOR: YELLOW
  Urinalysis GLUCOSE: NEGATIVE
  Urinalysis UROBILINOGEN: NORMAL
  Urinalysis VOLUME: <0.5 mL
Urinalysis, day 15; [7]
  Urinalysis BILIRUBIN: NEGATIVE
  Urinalysis BLOOD: TRACE; also recorded: NEGA-
  Urinalysis KETONES: NEGATIVE
  Urinalysis PROTEIN: TRACE; also recorded: NEGA-
  Urinalysis SPEC GRAVITY: 1.027 (2×) and 1.039 (2×) and 1.048 and 1.036 and 1.045 and 1.017
  Urinalysis pH: 8.5 and 7.5 (4×) and 7 (2×) and 8
Urinalysis, day 15; [8]
  Urinalysis CLARITY: HAZY
  Urinalysis COLOR: YELLOW
  Urinalysis GLUCOSE: NEGATIVE
  Urinalysis UROBILINOGEN: NORMAL
Urinalysis, day 15; [9]
  Urinalysis BILIRUBIN: NEGATIVE
  Urinalysis BLOOD: TRACE; also recorded: NEGA-
  Urinalysis KETONES: NEGATIVE
  Urinalysis PROTEIN: TRACE
  Urinalysis SPEC GRAVITY: 1.05 and 1.051 and 1.043 and 1.049 and 1.016 and 1.039 and 1.036 and 1.014
  Urinalysis VOLUME: <0.5 mL (8×) and <0.25 mL
  Urinalysis pH: 7 (3×) and 8 (3×) and 7.5 and 6
nAChR α4/β2
  inhibition of receptor activity: inhibited receptor activity
[4]; 0.1 mg/kg, F
  day 1 B.W.: 211.1 g and 201.0 g and 210.9 g
  day 2 B.W.: 223.9 g and 215.1 g and 208.1 g and 208.8 g and 212.8 g
  day 3 B.W.: 230.8 g and 213.2 g and 209.1 g (2×) and 219.3 g
  day 4 B.W.: 242.3 g and 222.4 g and 220.7 g and 211.4 g and 224.7 g
  day 5 B.W.: 246.9 g and 226.4 g and 219.3 g and 221.0 g and 229.5 g
  day 6 B.W.: 241.1 g and 235.5 g and 220.1 g and 218.8 g and 222.9 g
  day 7 B.W.: 246.5 g and 226.4 g and 221.7 g and 222.1 g and 232.1 g
  day 8 B.W.: 252.0 g and 232.0 g and 227.0 g and 235.0 g
  day 9 B.W.: 255.1 g and 239.9 g and 224.1 g and 232.0 g
  day 11 B.W.: 274.8 g and 238.5 g and 233.9 g and 245.6 g and 245.4 g
  day 12 B.W.: 277.2 g and 246.3 g and 242.0 g and 240.0 g and 241.6 g
  day 13 B.W.: 271.8 g and 241 g and 242.1 g
  day 14 B.W.: 272.7 g and 248.5 g and 243.9 g and 255.6 g and 239.2 g
[4]; 0.1 mg/kg, M
  day 1 B.W.: 233.7 g and 235.0 g and 243.5 g and 239.9 g
  day 2 B.W.: 257.0 g and 235.1 g and 231.0 g and 253.5 g and 247.3 g
  day 3 B.W.: 270.0 g and 251.0 g and 252.0 g and 259.4 g
  day 4 B.W.: 286.0 g and 270.0 g and 271.2 g and 280.5 g and 273.7 g
  day 5 B.W.: 296.5 g and 273.8 g and 278.5 g and 288.3 g and 286.6 g
  day 6 B.W.: 301.8 g and 278 g and 284.3 g and 288.3 g and 219.6 g
  day 7 B.W.: 318.2 g and 293.8 g and 297.6 g and 301.2 g and 300.7 g
  day 8 B.W.: 327.0 g and 309.0 g and 310.0 g and 311.0 g
  day 9 B.W.: 336.8 g and 303.4 g and 310.0 g and 318.7 g and 317.4 g
  day 10 B.W.: 346.4 g and 312.9 g and 319.9 g and 322.3 g and 330.4 g
  day 11 B.W.: 365.7 g and 331.0 g and 343.8 g and 346.9 g and 348.8 g
  day 12 B.W.: 359.9 g and 320.0 g and 341.9 g and 347.3 g and 360.9 g
  day 13 B.W.: 367 g and 331 g and 349 g and 334.4 g and 360 g
  day 14 B.W.: 391.0 g and 347.3 g and 368.8 g and 353.5 g and 373.8 g
[4]; 0.75 mg/kg, F
  day 1 B.W.: 208.9 g and 207.7 g and 219.1 g and 196.7 g and 199.5 g
  day 2 B.W.: 206.2 g and 210.0 g (2×) and 225.5 g and 210.1 g
  day 3 B.W.: 214.0 g (2×) and 224.8 g and 213.6 g and 210.8 g
  day 6 B.W.: 224.4 g and 217.8 g and 236.2 g and 214.7 g and 221.4 g
  day 7 B.W.: 227.4 g and 243.2 g and 222 g and 219.3 g
  day 8 B.W.: 232.0 g and 220.0 g and 243.0 g and 224.6 g and 227.4 g
  day 9 B.W.: 237.3 g and 226.3 g and 247.6 g and 229.1 g and 230.6 g
  day 10 B.W.: 239.3 g and 232.2 g and 252.7 g and 230.9 g and 233.5 g
  day 11 B.W.: 250.9 g and 239.1 g and 268.8 g and 240.9 g and 244.1 g
  day 12 B.W.: 249.7 g and 233.5 g and 259.6 g and 241.6 g and 247.9 g
  day 13 B.W.: 248 g and 237.2 g and 268 g and 234 g and 243 g
  day 14 B.W.: 251.5 g and 242.8 g and 274.1 g and 250.7 g and 250.6 g
[4]; 0.75 mg/kg, F, second one headed day 4
  day 4 B.W.: 225.4 g and 219.3 g and 237.1 g and 220.8 g and 227.6 g
[4]; 0.75 mg/kg, F, day 4
  day 4 B.W.: 230.0 g and 214.7 g and 232.4 g and 222.1 g and 220.0 g
[4]; 0.75 mg/kg, M
  day 1 B.W.: 242.7 g and 251.4 g and 231.9 g and 226.8 g and 239.8 g
  day 2 B.W.: 259.7 g and 240.0 g and 232.1 g and 247.2 g
  day 3 B.W.: 261.1 g and 269.1 g and 252.0 g and 243.0 g and 256.1 g
  day 6 B.W.: 282.4 g and 287.6 g and 268.2 g (2×) and 281.3 g
  day 7 B.W.: 294.5 g and 302.9 g and 281.8 g and 274.1 g and 287.1 g
  day 8 B.W.: 300.0 g and 310.6 g and 293.4 g and 284.2 g
  day 9 B.W.: 307.6 g and 319.8 g and 298.8 g and 296.2 g and 298.5 g
  day 10 B.W.: 317.2 g and 331.9 g and 307.9 g and 303.8 g and 306.8 g
  day 11 B.W.: 334.6 g and 339.8 g and 329.4 g and 316.1 g and 321.9 g
  day 12 B.W.: 327.6 g and 325.4 g and 322.5 g and 324.8 g and 331.1 g
  day 13 B.W.: 335.6 g and 338 g and 330 g and 326 g (2×)
  day 14 B.W.: 351.9 g and 357.9 g and 345.1 g and 339 g and 335.9 g
[4]; 0.75 mg/kg, M, second one headed day 4
  day 4 B.W.: 282.3 g and 287.6 g and 269.9 g and 262.0 g and 275.7 g
[4]; 0.75 mg/kg, M, day 4
  day 4 B.W.: 275.7 g and 286.0 g and 268.0 g and 256.3 g and 271.2 g
[4]; anatabine 0.1 mg/kg single i.v., Female
  Mean weigth increase by day 14: 39.0 g
[4]; [10]
  Mean food consumption/day: 31.0 g
  Mean weigth increase by day 14: 132.5 g
[4]; [11]
  Mean food consumption/day: 19.7 g
  Mean weigth increase by day 14: 43.1 g
[4]; [12]
  Mean food consumption/day: 27.8 g
  Mean weigth increase by day 14: 111.6 g
nAChR α3/β4 [5]
  agonist activity: showed agonist activity

Source: US20120196899A1, “METHODS AND PRODUCTS FOR TREATING INFLAMMATION” (Rock Creek Pharmaceuticals, Inc., priority 2010, published 2012)
